Several values for one entry are separate records, joined by “and”; a condition that tells them apart may be missing. Equal values may be shown once. Read-outs that look alike come from different tables or passages of the source. Where no end group is shown, it is not given here.
How the values were obtained:
ME180 cells = experiment: toxicity (XTT) in transmission inhibition assay; details: for TOXICITY VALUES (XTT), single samples: samples 1-3; for TC50 (concentration at which 50% of cells are eliminated): interpolation from % CC
Text: (§1) ME180 cells, a cervical epithelial cell line, were obtained from the American Type Culture Collection. These cells were thawed from liquid nitrogen and grown in RPMI 1640 medium supplemented with 10t fetal bovine serum, glutamine and antibiotics. The cells were adherent and were trypsinized (0.5% trypsin in HBSS) to remove them from the flask for passaging and use in assays. For use in the microtiter transmission inhibition assay, ME180 cells were trypsinized, washed and seeded in 96-well flat bottom microtiter plates (COSTAR) at a density of 5×10^3 cells per well. The cells were incubated at 37° C. for 24 hours prior to the tart of the assay. H9 cells chronically infected with he SK1 isolate of HIV-1 were treated with 200 μg/ml mitomycin C for 60 minutes at 37° C. After treatment the cells were washed three times with tissue culture medium. The chronically infected lymphocytes were added to each well at a density of 2×10^4 cells per well. The concentration of mitomycin C used in the treatment of the lymphocytes was chosen to allow lymphocyte survival for the period of time required to transmit virus to the uninfected ME180 cells, but to die prior to the time of assay so as not to contribute to the p24 signal used as the endpoint (see below). In the transmission assay the lytic peptides D4E1 and D2A21, with and without 150 μg/ml pig mucin, were added prior to the addition of chronically infected cells or were mixed with the chronically infected cells prior to their addition to the monolayer of ME180 cells. Mucin was included because it is an abundant constituent of the normal vaginal secretions of a human being, thus any chemotherapeutic agent targeting HIV should be active in its presence if it is to have clinical value. […] The lymphocytes and peptide were co-cultured with the ME180 cells for 6 hours and then removed by washing the ME180 monolayer four times with PBS. The plate was then incubated at 37° C. for six days. Medium was removed and changed every 48 hours during the incubation stage. No further peptide was added after the initial dose. At six days post-co-cultivation, the supernatant was removed from the wells and evaluated for the quantity of p24 antigen by ELISA. The ELISA was performed according to the manufacturer's recommendations. The amount of virus production in wells treated with various concentrations of the peptides was evaluated with appropriate cell and virus controls. Data are reported as a percent of virus control at each drug concentration. Linear regression analysis was used to calculate the […] and IC95 concentrations of the transmission inhibitor. […] TI represents the toxicity index, which is the ratio of the TC50/IC50, and is an indication of the relative concentrations window that exists between efficacy and toxicity.

[1] = toxicity (XTT) in transmission inhibition assay; details: human, ME180 cells
Text: as §1

SK1 isolate of HIV-1 = test system: SK1 isolate of HIV-1
Text: as §1

[2] = 0.32 μg/ml, with 150 μg/ml pig mucin
[3] = 1 μg/ml, with 150 μg/ml pig mucin
[4] = 3.2 μg/ml, with 150 μg/ml pig mucin
[5] = 10 μg/ml, with 150 μg/ml pig mucin
[6] = 32 μg/ml, with 150 μg/ml pig mucin
[7] = 100 μg/ml, with 150 μg/ml pig mucin

FAKKFAKKFKKFAKKFAKFAFAF [D2A21]
TOXICITY VALUES (XTT), MEAN (ME180 cells; 0.32 μg/ml, no mucin): 0.515 O.D. @ 450/650 nm | TOXICITY VALUES (XTT), single samples (ME180 cells; 0.32 μg/ml, no mucin): 0.541 O.D. @ 450/650 nm and 0.497 O.D. @ 450/650 nm and 0.506 O.D. @ 450/650 nm | % CC (XTT, percent of cell control) (ME180 cells; [2]): 97.6% | TOXICITY VALUES (XTT), MEAN (ME180 cells; [2]): 0.515 O.D. @ 450/650 nm | TOXICITY VALUES (XTT), single samples (ME180 cells; [2]): 0.541 O.D. @ 450/650 nm and 0.497 O.D. @ 450/650 nm and 0.506 O.D. @ 450/650 nm | TOXICITY VALUES (XTT), MEAN (ME180 cells; 1 μg/ml, no mucin): 0.528 O.D. @ 450/650 nm | TOXICITY VALUES (XTT), single samples (ME180 cells; 1 μg/ml, no mucin): 0.550 O.D. @ 450/650 nm and 0.514 O.D. @ 450/650 nm and 0.520 O.D. @ 450/650 nm | % CC (XTT, percent of cell control) (ME180 cells; [3]): 100.1% | TOXICITY VALUES (XTT), MEAN (ME180 cells; [3]): 0.528 O.D. @ 450/650 nm | TOXICITY VALUES (XTT), single samples (ME180 cells; [3]): 0.550 O.D. @ 450/650 nm and 0.514 O.D. @ 450/650 nm and 0.520 O.D. @ 450/650 nm | TOXICITY VALUES (XTT), MEAN (ME180 cells; 3.2 μg/ml, no mucin): 0.515 O.D. @ 450/650 nm | TOXICITY VALUES (XTT), single samples (ME180 cells; 3.2 μg/ml, no mucin): 0.525 O.D. @ 450/650 nm and 0.513 O.D. @ 450/650 nm and 0.506 O.D. @ 450/650 nm | % CC (XTT, percent of cell control) (ME180 cells; [4]): 97.6% | TOXICITY VALUES (XTT), MEAN (ME180 cells; [4]): 0.515 O.D. @ 450/650 nm | TOXICITY VALUES (XTT), single samples (ME180 cells; [4]): 0.525 O.D. @ 450/650 nm and 0.513 O.D. @ 450/650 nm and 0.506 O.D. @ 450/650 nm | TOXICITY VALUES (XTT), MEAN (ME180 cells; 10 μg/ml, no mucin): 0.506 O.D. @ 450/650 nm | TOXICITY VALUES (XTT), single samples (ME180 cells; 10 μg/ml, no mucin): 0.518 O.D. @ 450/650 nm and 0.506 O.D. @ 450/650 nm and 0.491 O.D. @ 450/650 nm | % CC (XTT, percent of cell control) (ME180 cells; [5]): 95.9% | TOXICITY VALUES (XTT), MEAN (ME180 cells; [5]): 0.506 O.D. @ 450/650 nm | TOXICITY VALUES (XTT), single samples (ME180 cells; [5]): 0.518 O.D. @ 450/650 nm and 0.508 O.D. @ 450/650 nm and 0.491 O.D. @ 450/650 nm | TOXICITY VALUES (XTT), MEAN (ME180 cells; 32 μg/ml, no mucin): 0.322 O.D. @ 450/650 nm | TOXICITY VALUES (XTT), single samples (ME180 cells; 32 μg/ml, no mucin): 0.342 O.D. @ 450/650 nm and 0.315 O.D. @ 450/650 nm and 0.308 O.D. @ 450/650 nm | % CC (XTT, percent of cell control) (ME180 cells; [6]): 61.04% | TOXICITY VALUES (XTT), MEAN (ME180 cells; [6]): 0.322 O.D. @ 450/650 nm | TOXICITY VALUES (XTT), single samples (ME180 cells; [6]): 0.342 O.D. @ 450/650 nm and 0.315 O.D. @ 450/650 nm and 0.308 O.D. @ 450/650 nm | TOXICITY VALUES (XTT), MEAN (ME180 cells; 100 μg/ml, no mucin): 0.087 O.D. @ 450/650 nm | TOXICITY VALUES (XTT), single samples (ME180 cells; 100 μg/ml, no mucin): 0.061 O.D. @ 450/650 nm and 0.083 O.D. @ 450/650 nm and 0.096 O.D. @ 450/650 nm | % CC (XTT, percent of cell control) (ME180 cells; [7]): 16.4% | TOXICITY VALUES (XTT), MEAN (ME180 cells; [7]): 0.087 O.D. @ 450/650 nm | TOXICITY VALUES (XTT), single samples (ME180 cells; [7]): 0.081 O.D. @ 450/650 nm and 0.083 O.D. @ 450/650 nm and 0.096 O.D. @ 450/650 nm | TC50 (concentration at which 50% of cells are eliminated) (ME180 cells; no mucin): TC50 = 39 μg/ml | TC50 (concentration at which 50% of cells are eliminated) (ME180 cells; with 150 μg/ml pig mucin): TC50 39 μg/ml | viability at 6 h, 0.32 µg/mL [1]: 97.6% | viability at 6 h, 1 µg/mL [1]: 100% | viability at 6 h, 3.2 µg/mL [1]: 97.6% | viability at 6 h, 10 µg/mL [1]: 95.9% | viability at 6 h, 32 µg/mL [1]: 61% | viability at 6 h, 100 µg/mL [1]: 16.4% | % VC (p24, percent of virus control) (SK1 isolate of HIV-1; 0.32 μg/ml, no mucin): 81.8% | % VC (p24, percent of virus control) (SK1 isolate of HIV-1; [2]): 33.7% | % VC (p24, percent of virus control) (SK1 isolate of HIV-1; 1 μg/ml, no mucin): 67.3% | % VC (p24, percent of virus control) (SK1 isolate of HIV-1; [3]): 27.7% | % VC (p24, percent of virus control) (SK1 isolate of HIV-1; 3.2 μg/ml, no mucin): 40.6% | % VC (p24, percent of virus control) (SK1 isolate of HIV-1; [4]): 18.8% | % VC (p24, percent of virus control) (SK1 isolate of HIV-1; 10 μg/ml, no mucin): 27.4% | % VC (p24, percent of virus control) (SK1 isolate of HIV-1; [5]): 10.1% | % VC (p24, percent of virus control) (SK1 isolate of HIV-1; 32 μg/ml, no mucin): 2.2% | % VC (p24, percent of virus control) (SK1 isolate of HIV-1; [6]): 0.0% | % VC (p24, percent of virus control) (SK1 isolate of HIV-1; 100 μg/ml, no mucin): 0.0% | TI (toxicity index, TC50/IC50) (SK1 isolate of HIV-1; no mucin): TI = 15 | TI (toxicity index, TC50/IC50) (SK1 isolate of HIV-1; with 150 μg/ml pig mucin): TI = 139

From patent US6514692B2, “Method for treatment of immunodeficiency virus infection” (priority 1996, dated 2003)
